In PubChem BioAssay AID1963974 (Molecular Pharmacology Branch, DTP, NCI, 2024):
Values joined by “and” are separate entries in the source; they are usually repeats but may differ in a detail not shown here. Equal values may be shown once.

Test system: 648629-189-R-J1-PDC spheroids with HUVEC/MSC, viability
Assay: Anticancer human tumor 648629-189-R-J1-PDC patient-derived bladder carcinoma cell line growth inhibition [PI3K]
Settings: for viability, T/C: stronger effect = lower value
Procedure, shortened: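 Targeted small molecules plus PI3K inhibitors, half-log dose series from Cmax (default top 10 microM), were applied to heterotypic spheroids of cancer cells with HUVEC and MSCs. Viability indicated growth inhibition.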
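Further: spheroids exposed to agents for seven days before reading.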
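Wherever viability, T/C is given: percent of vehicle control luminescence where 100% = DMSO treated spheroids.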

`CCCS(=O)(=O)Nc1ccc(F)c(C(=O)c2c[nH]c3ncc(-c4ccc(Cl)cc4)cc23)c1F` was tested, and the viability, T/C (compound 0.0316 µM) was 103% (2×) and 105% and 102%, the viability, T/C (compound 0.1 µM) was 108% [middle of 4 runs] and the viability, T/C (compound 0.316 µM) was 112% [middle of 4 runs]. For the same compound, the viability, T/C (compound 1 µM) was 110% [middle of 4 runs], the viability, T/C (compound 3.16 µM) was 91.3% [middle of 4 runs] and the viability, T/C (compound 10 µM) was 0.48% [middle of 4 runs]. The IC50 (curve of compound) was 5.33 µM [middle of 4 runs].
Compound `C[C@@H](NC(=O)c1ncnc(N)c1Cl)c1ncc(C(=O)Nc2cc(C(F)(F)F)c(Cl)cn2)s1` + COc1c(OCCCN2CCOCC2)ccc2c3n(c(=NC(=O)c4cnc(N)nc4)nc12)CCN3 has an IC50 (curve of first compound, second compound 0.00316 µM) greater than 10 µM, an IC50 (curve of first compound, second compound 0.01 µM) greater than 10 µM and an IC50 (curve of first compound, second compound 0.0316 µM) greater than 10 µM. It also gave an IC50 (curve of first compound, second compound 0.1 µM) greater than 10 µM, an IC50 (curve of first compound, second compound 0.316 µM) of less than 0.0316 µM and an IC50 (curve of first compound, second compound 1 µM) of less than 0.0316 µM. It also gave a viability, T/C (second compound 0.00316 µM, first compound 0.0316 µM) of 105%, a viability, T/C (second compound 0.00316 µM, first compound 0.1 µM) of 106% and a viability, T/C (second compound 0.00316 µM, first compound 0.316 µM) of 103%. The viability, T/C (second compound 0.00316 µM, first compound 1 µM) was 107%, the viability, T/C (second compound 0.00316 µM, first compound 3.16 µM) was 112% and the viability, T/C (second compound 0.00316 µM, first compound 10 µM) was 116%. The viability, T/C (second compound 0.01 µM, first compound 0.0316 µM) was 99.9%, the viability, T/C (second compound 0.01 µM, first compound 0.1 µM) was 111% and the viability, T/C (second compound 0.01 µM, first compound 0.316 µM) was 90.4%. The viability, T/C (second compound 0.01 µM, first compound 1 µM) was 101%, the viability, T/C (second compound 0.01 µM, first compound 3.16 µM) was 128% and the viability, T/C (second compound 0.01 µM, first compound 10 µM) was 113%. For the same compound, the viability, T/C (second compound 0.0316 µM, first compound 0.0316 µM) was 95.8%, the viability, T/C (second compound 0.0316 µM, first compound 0.1 µM) was 93.8% and the viability, T/C (second compound 0.0316 µM, first compound 0.316 µM) was 109%. It also gave a viability, T/C (second compound 0.0316 µM, first compound 1 µM) of 94.9%, a viability, T/C (second compound 0.0316 µM, first compound 3.16 µM) of 104% and a viability, T/C (second compound 0.0316 µM, first compound 10 µM) of 90%. The viability, T/C (second compound 0.1 µM, first compound 0.0316 µM) was 66.6%, the viability, T/C (second compound 0.1 µM, first compound 0.1 µM) was 70.3% and the viability, T/C (second compound 0.1 µM, first compound 0.316 µM) was 60.8%. It also gave a viability, T/C (second compound 0.1 µM, first compound 1 µM) of 65.2%, a viability, T/C (second compound 0.1 µM, first compound 3.16 µM) of 67.3% and a viability, T/C (second compound 0.1 µM, first compound 10 µM) of 68.9%. It also gave a viability, T/C (second compound 0.316 µM, first compound 0.0316 µM) of 23.6%, a viability, T/C (second compound 0.316 µM, first compound 0.1 µM) of 21.7% and a viability, T/C (second compound 0.316 µM, first compound 0.316 µM) of 19.4%. For the same compound, the viability, T/C (second compound 0.316 µM, first compound 1 µM) was 27.9%, the viability, T/C (second compound 0.316 µM, first compound 3.16 µM) was 26.4% and the viability, T/C (second compound 0.316 µM, first compound 10 µM) was 25.8%. For the same compound, the viability, T/C (second compound 1 µM, first compound 0.0316 µM) was 4.31%, the viability, T/C (second compound 1 µM, first compound 0.1 µM) was 4.06% and the viability, T/C (second compound 1 µM, first compound 0.316 µM) was 3.53%. The viability, T/C (second compound 1 µM, first compound 1 µM) was 4.37%, the viability, T/C (second compound 1 µM, first compound 3.16 µM) was 4.83% and the viability, T/C (second compound 1 µM, first compound 10 µM) was 6.55%.
